In US8093231B2, “Sulfonylethyl phosphorodiamidates” (Telik, Inc., priority 2004, dated 2012):

Test system: LNCap (prostate carcinoma)
Test: Cytotoxicity/growth inhibition assay, LNCap
Assay type: cell-based, human
Details: LNCap cells, 4 days culture, CellTiter-Glo, 0.1-200 μM tested; read-out: IC50 (LNCap)
Outline: (§1)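 Test compounds in DMSO (0.1–200 μM; final DMSO 0.5%) added to freshly diluted cells (3×10^3 cells/mL MX-1 and DLD-1, 6×10^3 cells/mL LNCap), triplicate wells. Cultured ~three doubling times (3 days MX-1, 4 days DLD-1/LNCap). CellTiter-Glo luminescence, 15 min room temperature; growth expressed as % of DMSO solvent control.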

Compound | IC50 [µM]
O=[N+]([O-])c1cccc(CS(=O)(=O)CCOP(=O)(N(CCCl)CCCl)N(CCCl)CCCl)c1 [Compound 138A] | 12
O=C(O)c1ccc(CS(=O)(=O)CCOP(=O)(N(CCCl)CCCl)N(CCCl)CCCl)cc1 [Compound 139A] | 82.1
COC(=O)c1ccc(CS(=O)(=O)CCOP(=O)(N(CCCl)CCCl)N(CCCl)CCCl)cc1 [Compound 140A] | 23.3
Nc1cccc(CS(=O)(=O)CCOP(=O)(N(CCCl)CCCl)N(CCCl)CCCl)c1 [Compound 141A] | 45.9
O=C(O)CCC(=O)Nc1cccc(CS(=O)(=O)CCOP(=O)(N(CCCl)CCCl)N(CCCl)CCCl)c1 [Compound 142A] | 114
NCC(=O)Nc1cccc(CS(=O)(=O)CCOP(=O)(N(CCCl)CCCl)N(CCCl)CCCl)c1 [Compound 143A] | 110
CC(C)(C)OC(=O)NCC(=O)Nc1cccc(CS(=O)(=O)CCOP(=O)(N(CCCl)CCCl)N(CCCl)CCCl)c1 [Compound 144A] | 17.9
N[C@@H](CCC(=O)Nc1cccc(CS(=O)(=O)CCOP(=O)(N(CCCl)CCCl)N(CCCl)CCCl)c1)C(=O)O [Compound 147A] | 63.9
N#Cc1ccc(CS(=O)(=O)CCOP(=O)(N(CCCl)CCCl)N(CCCl)CCCl)cc1 [Compound 153A] | 6.9
O=C(c1ccc(CS(=O)(=O)CCOP(=O)(N(CCCl)CCCl)N(CCCl)CCCl)cc1)N1CCOCC1 [Compound 154A] | 26.2
CN(C)C(=O)c1ccc(CS(=O)(=O)CCOP(=O)(N(CCCl)CCCl)N(CCCl)CCCl)cc1 [Compound 155A] | 42.4
O=C(c1ccc(CS(=O)(=O)CCOP(=O)(N(CCCl)CCCl)N(CCCl)CCCl)cc1)N1CCCC1 [Compound 156A] | 31.4
CCN(CC)C(=O)c1ccc(CS(=O)(=O)CCOP(=O)(N(CCCl)CCCl)N(CCCl)CCCl)cc1 [Compound 157A] | 29.6
CN(CCO)C(=O)c1ccc(CS(=O)(=O)CCOP(=O)(N(CCCl)CCCl)N(CCCl)CCCl)cc1 [Compound 158A] | 85.2
O=C(c1ccc(CS(=O)(=O)CCOP(=O)(N(CCCl)CCCl)N(CCCl)CCCl)cc1)N1CCCCC1 [Compound 159A] | 24.4
O=C(NCCO)c1ccc(CS(=O)(=O)CCOP(=O)(N(CCCl)CCCl)N(CCCl)CCCl)cc1 [Compound 160A] | 104
O=C(NCc1ccccc1)c1ccc(CS(=O)(=O)CCOP(=O)(N(CCCl)CCCl)N(CCCl)CCCl)cc1 [Compound 161A] | 11.7
NC(=O)c1ccc(CS(=O)(=O)CCOP(=O)(N(CCCl)CCCl)N(CCCl)CCCl)cc1 [Compound 162A] | 55.1
CCNC(=O)c1ccc(CS(=O)(=O)CCOP(=O)(N(CCCl)CCCl)N(CCCl)CCCl)cc1 [Compound 163A] | 28.5
N#CCNC(=O)c1ccc(CS(=O)(=O)CCOP(=O)(N(CCCl)CCCl)N(CCCl)CCCl)cc1 [Compound 164A] | 45.9
O=C(c1ccc(CS(=O)(=O)CCOP(=O)(N(CCCl)CCCl)N(CCCl)CCCl)cc1)N1CCC(O)C1 (stereo not drawn) [Compound 165A] | 114
O=C(c1ccc(CS(=O)(=O)CCOP(=O)(N(CCCl)CCCl)N(CCCl)CCCl)cc1)N1CCC(O)CC1 [Compound 166A] | 90.2
CNC(=O)c1ccc(CS(=O)(=O)CCOP(=O)(N(CCCl)CCCl)N(CCCl)CCCl)cc1 [Compound 168A] | 24.2
O=C(c1ccc(CS(=O)(=O)CCOP(=O)(N(CCCl)CCCl)N(CCCl)CCCl)cc1)N(CCO)CCO [Compound 169A] | 144
NC(=O)C1CCN(C(=O)c2ccc(CS(=O)(=O)CCOP(=O)(N(CCCl)CCCl)N(CCCl)CCCl)cc2)CC1 [Compound 170A] | ≥ 200
O=C(NCc1cccnc1)c1ccc(CS(=O)(=O)CCOP(=O)(N(CCCl)CCCl)N(CCCl)CCCl)cc1 [Compound 174A] | 55.8

Test system: MX-1 (breast carcinoma)
Test: Cytotoxicity/growth inhibition assay, MX-1
Assay type: cell-based, human
Details: MX-1 cells, 3 days culture, CellTiter-Glo, 0.1-200 μM tested; read-out: IC50 (MX-1)
Outline: as §1

Compound | IC50 [µM]
O=[N+]([O-])c1cccc(CS(=O)(=O)CCOP(=O)(N(CCCl)CCCl)N(CCCl)CCCl)c1 [Compound 138A] | 16.8
O=C(O)c1ccc(CS(=O)(=O)CCOP(=O)(N(CCCl)CCCl)N(CCCl)CCCl)cc1 [Compound 139A] | 25.3
COC(=O)c1ccc(CS(=O)(=O)CCOP(=O)(N(CCCl)CCCl)N(CCCl)CCCl)cc1 [Compound 140A] | 11.9
Nc1cccc(CS(=O)(=O)CCOP(=O)(N(CCCl)CCCl)N(CCCl)CCCl)c1 [Compound 141A] | 17.3
O=C(O)CCC(=O)Nc1cccc(CS(=O)(=O)CCOP(=O)(N(CCCl)CCCl)N(CCCl)CCCl)c1 [Compound 142A] | 22.5
NCC(=O)Nc1cccc(CS(=O)(=O)CCOP(=O)(N(CCCl)CCCl)N(CCCl)CCCl)c1 [Compound 143A] | 15.9
CC(C)(C)OC(=O)NCC(=O)Nc1cccc(CS(=O)(=O)CCOP(=O)(N(CCCl)CCCl)N(CCCl)CCCl)c1 [Compound 144A] | 5.7
N[C@@H](CCC(=O)Nc1cccc(CS(=O)(=O)CCOP(=O)(N(CCCl)CCCl)N(CCCl)CCCl)c1)C(=O)O [Compound 147A] | 12.2
N#Cc1ccc(CS(=O)(=O)CCOP(=O)(N(CCCl)CCCl)N(CCCl)CCCl)cc1 [Compound 153A] | 3
O=C(c1ccc(CS(=O)(=O)CCOP(=O)(N(CCCl)CCCl)N(CCCl)CCCl)cc1)N1CCOCC1 [Compound 154A] | 5.5
CN(C)C(=O)c1ccc(CS(=O)(=O)CCOP(=O)(N(CCCl)CCCl)N(CCCl)CCCl)cc1 [Compound 155A] | 2.6
O=C(c1ccc(CS(=O)(=O)CCOP(=O)(N(CCCl)CCCl)N(CCCl)CCCl)cc1)N1CCCC1 [Compound 156A] | 4.8
CCN(CC)C(=O)c1ccc(CS(=O)(=O)CCOP(=O)(N(CCCl)CCCl)N(CCCl)CCCl)cc1 [Compound 157A] | 3.1
CN(CCO)C(=O)c1ccc(CS(=O)(=O)CCOP(=O)(N(CCCl)CCCl)N(CCCl)CCCl)cc1 [Compound 158A] | 35.4
O=C(c1ccc(CS(=O)(=O)CCOP(=O)(N(CCCl)CCCl)N(CCCl)CCCl)cc1)N1CCCCC1 [Compound 159A] | 5.3
O=C(NCCO)c1ccc(CS(=O)(=O)CCOP(=O)(N(CCCl)CCCl)N(CCCl)CCCl)cc1 [Compound 160A] | 33.2
O=C(NCc1ccccc1)c1ccc(CS(=O)(=O)CCOP(=O)(N(CCCl)CCCl)N(CCCl)CCCl)cc1 [Compound 161A] | 7.4
NC(=O)c1ccc(CS(=O)(=O)CCOP(=O)(N(CCCl)CCCl)N(CCCl)CCCl)cc1 [Compound 162A] | 7.1
CCNC(=O)c1ccc(CS(=O)(=O)CCOP(=O)(N(CCCl)CCCl)N(CCCl)CCCl)cc1 [Compound 163A] | 4.8
N#CCNC(=O)c1ccc(CS(=O)(=O)CCOP(=O)(N(CCCl)CCCl)N(CCCl)CCCl)cc1 [Compound 164A] | 10.7
O=C(c1ccc(CS(=O)(=O)CCOP(=O)(N(CCCl)CCCl)N(CCCl)CCCl)cc1)N1CCC(O)C1 (stereo not drawn) [Compound 165A] | 21.9
O=C(c1ccc(CS(=O)(=O)CCOP(=O)(N(CCCl)CCCl)N(CCCl)CCCl)cc1)N1CCC(O)CC1 [Compound 166A] | 20.5
CNC(=O)c1ccc(CS(=O)(=O)CCOP(=O)(N(CCCl)CCCl)N(CCCl)CCCl)cc1 [Compound 168A] | 7.9
O=C(c1ccc(CS(=O)(=O)CCOP(=O)(N(CCCl)CCCl)N(CCCl)CCCl)cc1)N(CCO)CCO [Compound 169A] | 34.5
NC(=O)C1CCN(C(=O)c2ccc(CS(=O)(=O)CCOP(=O)(N(CCCl)CCCl)N(CCCl)CCCl)cc2)CC1 [Compound 170A] | 31.4
O=C(NCc1cccnc1)c1ccc(CS(=O)(=O)CCOP(=O)(N(CCCl)CCCl)N(CCCl)CCCl)cc1 [Compound 174A] | 18.8

Test system: DLD-1 (colorectal adenocarcinoma)
Test: Cytotoxicity/growth inhibition assay, DLD-1
Assay type: cell-based, human
Details: DLD-1 cells, 4 days culture, CellTiter-Glo, 0.1-200 μM tested; read-out: IC50 (DLD-1)
Outline: as §1

Compound | IC50 [µM]
O=[N+]([O-])c1cccc(CS(=O)(=O)CCOP(=O)(N(CCCl)CCCl)N(CCCl)CCCl)c1 [Compound 138A] | 1.8
O=C(O)c1ccc(CS(=O)(=O)CCOP(=O)(N(CCCl)CCCl)N(CCCl)CCCl)cc1 [Compound 139A] | 9.3
COC(=O)c1ccc(CS(=O)(=O)CCOP(=O)(N(CCCl)CCCl)N(CCCl)CCCl)cc1 [Compound 140A] | 5.9
Nc1cccc(CS(=O)(=O)CCOP(=O)(N(CCCl)CCCl)N(CCCl)CCCl)c1 [Compound 141A] | 12.9
O=C(O)CCC(=O)Nc1cccc(CS(=O)(=O)CCOP(=O)(N(CCCl)CCCl)N(CCCl)CCCl)c1 [Compound 142A] | 18.1
NCC(=O)Nc1cccc(CS(=O)(=O)CCOP(=O)(N(CCCl)CCCl)N(CCCl)CCCl)c1 [Compound 143A] | 10.9
CC(C)(C)OC(=O)NCC(=O)Nc1cccc(CS(=O)(=O)CCOP(=O)(N(CCCl)CCCl)N(CCCl)CCCl)c1 [Compound 144A] | 4
N[C@@H](CCC(=O)Nc1cccc(CS(=O)(=O)CCOP(=O)(N(CCCl)CCCl)N(CCCl)CCCl)c1)C(=O)O [Compound 147A] | 11.1
N#Cc1ccc(CS(=O)(=O)CCOP(=O)(N(CCCl)CCCl)N(CCCl)CCCl)cc1 [Compound 153A] | 1.8
O=C(c1ccc(CS(=O)(=O)CCOP(=O)(N(CCCl)CCCl)N(CCCl)CCCl)cc1)N1CCOCC1 [Compound 154A] | 5.8
CN(C)C(=O)c1ccc(CS(=O)(=O)CCOP(=O)(N(CCCl)CCCl)N(CCCl)CCCl)cc1 [Compound 155A] | 10.7
O=C(c1ccc(CS(=O)(=O)CCOP(=O)(N(CCCl)CCCl)N(CCCl)CCCl)cc1)N1CCCC1 [Compound 156A] | 3.5
CCN(CC)C(=O)c1ccc(CS(=O)(=O)CCOP(=O)(N(CCCl)CCCl)N(CCCl)CCCl)cc1 [Compound 157A] | 2.3
CN(CCO)C(=O)c1ccc(CS(=O)(=O)CCOP(=O)(N(CCCl)CCCl)N(CCCl)CCCl)cc1 [Compound 158A] | 17.5
O=C(c1ccc(CS(=O)(=O)CCOP(=O)(N(CCCl)CCCl)N(CCCl)CCCl)cc1)N1CCCCC1 [Compound 159A] | 3.5
O=C(NCCO)c1ccc(CS(=O)(=O)CCOP(=O)(N(CCCl)CCCl)N(CCCl)CCCl)cc1 [Compound 160A] | 13.9
O=C(NCc1ccccc1)c1ccc(CS(=O)(=O)CCOP(=O)(N(CCCl)CCCl)N(CCCl)CCCl)cc1 [Compound 161A] | 3.7
NC(=O)c1ccc(CS(=O)(=O)CCOP(=O)(N(CCCl)CCCl)N(CCCl)CCCl)cc1 [Compound 162A] | 4.7
CCNC(=O)c1ccc(CS(=O)(=O)CCOP(=O)(N(CCCl)CCCl)N(CCCl)CCCl)cc1 [Compound 163A] | 4.8
N#CCNC(=O)c1ccc(CS(=O)(=O)CCOP(=O)(N(CCCl)CCCl)N(CCCl)CCCl)cc1 [Compound 164A] | 5.8
O=C(c1ccc(CS(=O)(=O)CCOP(=O)(N(CCCl)CCCl)N(CCCl)CCCl)cc1)N1CCC(O)C1 (stereo not drawn) [Compound 165A] | 8
O=C(c1ccc(CS(=O)(=O)CCOP(=O)(N(CCCl)CCCl)N(CCCl)CCCl)cc1)N1CCC(O)CC1 [Compound 166A] | 6.3
CNC(=O)c1ccc(CS(=O)(=O)CCOP(=O)(N(CCCl)CCCl)N(CCCl)CCCl)cc1 [Compound 168A] | 5.7
O=C(c1ccc(CS(=O)(=O)CCOP(=O)(N(CCCl)CCCl)N(CCCl)CCCl)cc1)N(CCO)CCO [Compound 169A] | 7.6
NC(=O)C1CCN(C(=O)c2ccc(CS(=O)(=O)CCOP(=O)(N(CCCl)CCCl)N(CCCl)CCCl)cc2)CC1 [Compound 170A] | 10.8
O=C(NCc1cccnc1)c1ccc(CS(=O)(=O)CCOP(=O)(N(CCCl)CCCl)N(CCCl)CCCl)cc1 [Compound 174A] | 14.3
